According to PubChem BioAssay (NCI):
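96-well plates; 48 h exposure; 5 concentrations. Endpoints by linear interpolation between flanking doses. Not reached: highest tested concentration assigned. GI50 marks 50% less growth. TGI: concentration producing complete growth inhibition.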

Columns and labels:
Experiment in all cases: NCI tumour cell line growth inhibition, 48 h
PC-3 prostate = test system: PC-3 prostate
HL-60(TB) leukemia = test system: HL-60(TB) leukemia
MOLT-4 leukemia = test system: MOLT-4 leukemia
A498 renal = test system: A498 renal
EKVX NSCLC = test system: EKVX NSCLC
OVCAR-4 ovarian = test system: OVCAR-4 ovarian
SF-268 CNS = test system: SF-268 CNS
OVCAR-5 ovarian = test system: OVCAR-5 ovarian
MDA-N = test system: MDA-N
HOP-62 NSCLC = test system: HOP-62 NSCLC
U251 CNS = test system: U251 CNS
SN12C renal = test system: SN12C renal
TK-10 renal = test system: TK-10 renal
HCC-2998 colon = test system: HCC-2998 colon
CAKI-1 renal = test system: CAKI-1 renal
HS 578T breast = test system: HS 578T breast
MDA-MB-435 = test system: MDA-MB-435
RPMI-8226 leukemia = test system: RPMI-8226 leukemia
SF-539 CNS = test system: SF-539 CNS
MALME-3M melanoma = test system: MALME-3M melanoma
T-47D breast = test system: T-47D breast
M14 melanoma = test system: M14 melanoma
HCT-116 colon = test system: HCT-116 colon
SNB-75 CNS = test system: SNB-75 CNS
786-0 renal = test system: 786-0 renal
K-562 leukemia = test system: K-562 leukemia
RXF 393 renal = test system: RXF 393 renal
UACC-62 melanoma = test system: UACC-62 melanoma
HCT-15 colon = test system: HCT-15 colon
SK-MEL-2 melanoma = test system: SK-MEL-2 melanoma
BT-549 breast = test system: BT-549 breast
NCI-H460 lung = test system: NCI-H460 lung
SK-OV-3 ovarian = test system: SK-OV-3 ovarian
ACHN renal = test system: ACHN renal
COLO 205 colon = test system: COLO 205 colon
HT29 colon = test system: HT29 colon
IGROV1 ovarian = test system: IGROV1 ovarian
NCI-H226 lung = test system: NCI-H226 lung
UO-31 renal = test system: UO-31 renal
SK-MEL-5 melanoma = test system: SK-MEL-5 melanoma
DU-145 prostate = test system: DU-145 prostate
SNB-19 CNS = test system: SNB-19 CNS
MCF7 breast = test system: MCF7 breast
SF-295 CNS = test system: SF-295 CNS
KM12 colon = test system: KM12 colon
A549 NSCLC = test system: A549 NSCLC
MDA-MB-231 breast = test system: MDA-MB-231 breast
SK-MEL-28 melanoma = test system: SK-MEL-28 melanoma
SW-620 colon = test system: SW-620 colon
NCI-H522 lung = test system: NCI-H522 lung
OVCAR-3 ovarian = test system: OVCAR-3 ovarian
UACC-257 melanoma = test system: UACC-257 melanoma
OVCAR-8 ovarian = test system: OVCAR-8 ovarian
SR leukemia = test system: SR leukemia
HOP-92 NSCLC = test system: HOP-92 NSCLC
LOX IMVI melanoma = test system: LOX IMVI melanoma
NCI/ADR-RES ovarian = test system: NCI/ADR-RES ovarian
CCRF-CEM leukemia = test system: CCRF-CEM leukemia
NCI-H23 lung = test system: NCI-H23 lung

COc1ccc2nc3cc(Cl)ccc3c(Nc3ccc(O)c(CN4CCN(C)CC4)c3)c2c1
TGI (PC-3 prostate): 3.22 µM
TGI (HL-60(TB) leukemia): 3.57 µM
TGI (MOLT-4 leukemia): 4.94 µM
TGI (A498 renal): 8.68 µM
TGI (EKVX NSCLC): 3.52 µM
TGI (OVCAR-4 ovarian): 3.19 µM
TGI (SF-268 CNS): 6.42 µM
TGI (OVCAR-5 ovarian): 5.34 µM
TGI (MDA-N): 3.21 µM
TGI (HOP-62 NSCLC): 4.07 µM
TGI (U251 CNS): 3.15 µM
TGI (SN12C renal): 3.93 µM
TGI (TK-10 renal): 3.79 µM
TGI (HCC-2998 colon): 2.42 µM
TGI (CAKI-1 renal): 3.98 µM
TGI (HS 578T breast): 4.65 µM
TGI (MDA-MB-435): 3 µM
TGI (RPMI-8226 leukemia): 4.85 µM
TGI (SF-539 CNS): 3.22 µM
TGI (MALME-3M melanoma): 3.21 µM
TGI (T-47D breast): 4.48 µM
TGI (M14 melanoma): 3.53 µM
TGI (HCT-116 colon): 3.74 µM
TGI (SNB-75 CNS): 3.91 µM
TGI (786-0 renal): 3 µM
TGI (K-562 leukemia): 3.71 µM
TGI (RXF 393 renal): 3.22 µM
TGI (UACC-62 melanoma): 3.07 µM
TGI (HCT-15 colon): 5.68 µM
TGI (SK-MEL-2 melanoma): 3.29 µM
TGI (BT-549 breast): 38.6 µM
TGI (NCI-H460 lung): 3.22 µM
TGI (SK-OV-3 ovarian): 11.1 µM
TGI (ACHN renal): 3 µM
TGI (COLO 205 colon): 3.04 µM
TGI (HT29 colon): 3.54 µM
TGI (IGROV1 ovarian): 3.3 µM
TGI (NCI-H226 lung): 38.9 µM
TGI (UO-31 renal): 3.31 µM
TGI (SK-MEL-5 melanoma): 3.11 µM
TGI (DU-145 prostate): 3.73 µM
TGI (SNB-19 CNS): 5.96 µM
TGI (MCF7 breast): 3.12 µM
TGI (SF-295 CNS): 3.81 µM
TGI (KM12 colon): 3.85 µM
TGI (A549 NSCLC): 3.47 µM
TGI (MDA-MB-231 breast): 2.99 µM
TGI (SK-MEL-28 melanoma): 3.62 µM
TGI (SW-620 colon): 5.1 µM
TGI (NCI-H522 lung): 3.33 µM
TGI (OVCAR-3 ovarian): 3.76 µM
TGI (UACC-257 melanoma): 3.45 µM
TGI (OVCAR-8 ovarian): 3.56 µM

CC(C)=Cc1cc2c(cc1O)CCC1C2CC[C@@]2(C)C1CC[C@@H]2O (stereo not given in full)
TGI (PC-3 prostate): 28.6 µM
TGI (HL-60(TB) leukemia): 37.5 µM
TGI (MOLT-4 leukemia): 25.3 µM
TGI (A498 renal): 29.9 µM
TGI (EKVX NSCLC): 31.5 µM
TGI (OVCAR-4 ovarian): 61 µM
TGI (SF-268 CNS): 36.2 µM
TGI (OVCAR-5 ovarian): 31.8 µM
TGI (MDA-N): 7.14 µM
GI50 (HOP-62 NSCLC): 15 µM
TGI (HOP-62 NSCLC): 31.7 µM
TGI (U251 CNS): 22.2 µM
TGI (SN12C renal): 30 µM
TGI (TK-10 renal): 9.68 µM
TGI (HCC-2998 colon): 31.8 µM
TGI (SR leukemia): 6.94 µM
TGI (CAKI-1 renal): 29.5 µM
TGI (HS 578T breast): 65.6 µM
GI50 (MDA-MB-435): 3.02 µM
TGI (MDA-MB-435): 11.7 µM
TGI (RPMI-8226 leukemia): 26 µM
GI50 (SF-539 CNS): 7.6 µM
TGI (SF-539 CNS): 22.4 µM
TGI (MALME-3M melanoma): 22.5 µM
TGI (T-47D breast): 89.5 µM
TGI (M14 melanoma): 22.8 µM
TGI (HCT-116 colon): 23.4 µM
TGI (SNB-75 CNS): 24.8 µM
TGI (786-0 renal): 25 µM
TGI (K-562 leukemia): 13.8 µM
TGI (RXF 393 renal): 20.9 µM
GI50 (UACC-62 melanoma): 11 µM
TGI (UACC-62 melanoma): 24.7 µM
TGI (HCT-15 colon): 24.4 µM
TGI (SK-MEL-2 melanoma): 32.7 µM
TGI (NCI-H460 lung): 26.1 µM
TGI (SK-OV-3 ovarian): 35 µM
TGI (ACHN renal): 29.5 µM
TGI (COLO 205 colon): 32.7 µM
TGI (HT29 colon): 30.8 µM
TGI (IGROV1 ovarian): 29.9 µM
TGI (HOP-92 NSCLC): 42.1 µM
TGI (NCI-H226 lung): 26.1 µM
TGI (UO-31 renal): 27.4 µM
TGI (SK-MEL-5 melanoma): 19.3 µM
TGI (DU-145 prostate): 27.7 µM
TGI (LOX IMVI melanoma): 16.1 µM
TGI (SNB-19 CNS): 24.4 µM
TGI (NCI/ADR-RES ovarian): 28 µM
TGI (MCF7 breast): 37.4 µM
TGI (SF-295 CNS): 7.57 µM
TGI (KM12 colon): 25.3 µM
TGI (A549 NSCLC): 27.5 µM
TGI (MDA-MB-231 breast): 35.2 µM
TGI (SK-MEL-28 melanoma): 30.2 µM
TGI (SW-620 colon): 23.6 µM
TGI (CCRF-CEM leukemia): 40.8 µM
TGI (NCI-H522 lung): 31.2 µM
GI50 (OVCAR-3 ovarian): 5.27 µM
TGI (OVCAR-3 ovarian): 19.9 µM
TGI (UACC-257 melanoma): 30.5 µM
TGI (OVCAR-8 ovarian): 40.7 µM
TGI (NCI-H23 lung): 35.2 µM

NNC(=O)c1n[nH]n(N)c1=S
TGI (PC-3 prostate): > 100 µM
TGI (MOLT-4 leukemia): > 100 µM
TGI (A498 renal): > 100 µM
TGI (EKVX NSCLC): > 100 µM
TGI (OVCAR-4 ovarian): > 100 µM
TGI (SF-268 CNS): > 100 µM
TGI (OVCAR-5 ovarian): > 100 µM
TGI (MDA-N): > 100 µM
TGI (HOP-62 NSCLC): > 100 µM
TGI (U251 CNS): > 100 µM
TGI (SN12C renal): > 100 µM
TGI (TK-10 renal): > 100 µM
TGI (HCC-2998 colon): > 100 µM
TGI (CAKI-1 renal): > 100 µM
TGI (HS 578T breast): > 100 µM
TGI (MDA-MB-435): > 100 µM
TGI (RPMI-8226 leukemia): > 100 µM
TGI (SF-539 CNS): > 100 µM
TGI (MALME-3M melanoma): > 100 µM
TGI (T-47D breast): > 100 µM
TGI (M14 melanoma): > 100 µM
TGI (HCT-116 colon): > 100 µM
TGI (SNB-75 CNS): > 100 µM
TGI (786-0 renal): > 100 µM
TGI (K-562 leukemia): > 100 µM
TGI (RXF 393 renal): > 100 µM
TGI (UACC-62 melanoma): > 100 µM
TGI (HCT-15 colon): > 100 µM
TGI (SK-MEL-2 melanoma): > 100 µM
TGI (BT-549 breast): > 100 µM
TGI (NCI-H460 lung): > 100 µM
TGI (SK-OV-3 ovarian): > 100 µM
TGI (ACHN renal): > 100 µM
TGI (COLO 205 colon): > 100 µM
TGI (HT29 colon): > 100 µM
TGI (IGROV1 ovarian): > 100 µM
TGI (NCI-H226 lung): > 100 µM
TGI (UO-31 renal): > 100 µM
TGI (SK-MEL-5 melanoma): > 100 µM
TGI (DU-145 prostate): > 100 µM
TGI (LOX IMVI melanoma): > 100 µM
TGI (NCI/ADR-RES ovarian): > 100 µM
TGI (SF-295 CNS): > 100 µM
TGI (KM12 colon): > 100 µM
TGI (A549 NSCLC): > 100 µM
TGI (MDA-MB-231 breast): > 100 µM
TGI (SK-MEL-28 melanoma): > 100 µM
TGI (SW-620 colon): > 100 µM
TGI (CCRF-CEM leukemia): > 100 µM
TGI (NCI-H522 lung): > 100 µM
TGI (OVCAR-3 ovarian): > 100 µM
TGI (UACC-257 melanoma): > 100 µM
TGI (OVCAR-8 ovarian): > 100 µM
TGI (NCI-H23 lung): > 100 µM
